Targets include CSNK1E (Homo sapiens, UniProt P49674); CSNK1G3 (Homo sapiens, UniProt Q9Y6M4); LATS1 (Homo sapiens, UniProt O95835); MAPKAPK2 (Homo sapiens, UniProt P49137); PAK2 (Homo sapiens, UniProt Q13177); PAK6 (Homo sapiens, UniProt Q9NQU5); PIK3CA(E545K) (Homo sapiens, UniProt P42336, E545K); PKNB(M.tuberculosis) (Mycobacterium tuberculosis, UniProt P9WI81); TGFBR2 (Homo sapiens, UniProt P37173).

What all share (assay): biochemical
Common to all, as to set-up: DiscoverX KINOMEscan scanMAX competition binding panel, single concentration, percent of control; remaining binding: dose or concentration left out as unconfirmed
Common to all, as to settings: KINOMEscan binding, percent of control; read-out: Table S4_SCANMAX REPORT - related to Fig. 1 / Percent Control

The target in test [1] is T1, ABL1(F317I)-nonphosphorylated (Homo sapiens, UniProt P00519, F317I).
T1 construct: nonphosphorylated

Test [2] deals with T2, ABL1(F317I)-phosphorylated (Homo sapiens, UniProt P00519, F317I).
T2 construct: phosphorylated

Test [3] addresses T3, ABL1(T315I)-nonphosphorylated (Homo sapiens, UniProt P00519, T315I).
T3 construct: nonphosphorylated

In another test the target is T4, BIKE (Homo sapiens, UniProt Q9NSY1).
T4 construct: gene BMP2K

Another test deals with T5, DCAMKL2 (Homo sapiens, UniProt Q8N568).
T5 construct: gene DCLK2

In another test the target is T6, JNK3 (Homo sapiens, UniProt P53779).
T6 construct: gene MAPK10

The target in a further test is T7, MEK2 (Homo sapiens, UniProt P36507).
T7 construct: gene MAP2K2

Test [4] has as its target T8, RSK2(Kin.Dom.2-C-terminal) (Homo sapiens, UniProt P51812).
T8 construct: gene RPS6KA3; Kin.Dom.2-C-terminal

Another test deals with T9, YANK2 (Homo sapiens, UniProt Q9NY57).
T9 construct: gene STK32B
T9 sequence (Q9NY57 whole entry): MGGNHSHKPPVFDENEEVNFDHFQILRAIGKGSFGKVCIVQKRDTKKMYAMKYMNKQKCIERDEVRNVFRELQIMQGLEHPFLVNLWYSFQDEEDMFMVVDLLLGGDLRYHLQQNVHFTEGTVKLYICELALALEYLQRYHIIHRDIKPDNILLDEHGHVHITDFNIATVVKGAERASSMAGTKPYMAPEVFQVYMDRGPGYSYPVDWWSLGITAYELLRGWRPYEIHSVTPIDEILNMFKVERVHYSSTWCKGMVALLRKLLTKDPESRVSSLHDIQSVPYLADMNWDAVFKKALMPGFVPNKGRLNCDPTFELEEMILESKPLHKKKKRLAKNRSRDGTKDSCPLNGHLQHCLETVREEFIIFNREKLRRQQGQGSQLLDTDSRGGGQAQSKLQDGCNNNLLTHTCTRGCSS

Sequence of PAK2 (Q13177 whole entry): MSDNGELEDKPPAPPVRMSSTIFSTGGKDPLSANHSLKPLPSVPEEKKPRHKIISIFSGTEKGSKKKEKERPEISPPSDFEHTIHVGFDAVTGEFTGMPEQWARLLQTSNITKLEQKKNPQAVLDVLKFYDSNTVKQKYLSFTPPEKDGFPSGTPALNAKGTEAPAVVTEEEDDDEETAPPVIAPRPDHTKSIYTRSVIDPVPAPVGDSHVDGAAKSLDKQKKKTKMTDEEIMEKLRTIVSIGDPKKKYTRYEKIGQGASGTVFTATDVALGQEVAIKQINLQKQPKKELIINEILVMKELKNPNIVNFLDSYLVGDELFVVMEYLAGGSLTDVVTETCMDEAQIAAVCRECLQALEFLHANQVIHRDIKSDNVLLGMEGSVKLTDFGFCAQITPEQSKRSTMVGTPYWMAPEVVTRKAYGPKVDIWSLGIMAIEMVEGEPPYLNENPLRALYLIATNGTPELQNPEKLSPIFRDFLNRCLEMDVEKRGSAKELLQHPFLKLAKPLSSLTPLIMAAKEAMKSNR
T6 sequence (P53779 whole entry): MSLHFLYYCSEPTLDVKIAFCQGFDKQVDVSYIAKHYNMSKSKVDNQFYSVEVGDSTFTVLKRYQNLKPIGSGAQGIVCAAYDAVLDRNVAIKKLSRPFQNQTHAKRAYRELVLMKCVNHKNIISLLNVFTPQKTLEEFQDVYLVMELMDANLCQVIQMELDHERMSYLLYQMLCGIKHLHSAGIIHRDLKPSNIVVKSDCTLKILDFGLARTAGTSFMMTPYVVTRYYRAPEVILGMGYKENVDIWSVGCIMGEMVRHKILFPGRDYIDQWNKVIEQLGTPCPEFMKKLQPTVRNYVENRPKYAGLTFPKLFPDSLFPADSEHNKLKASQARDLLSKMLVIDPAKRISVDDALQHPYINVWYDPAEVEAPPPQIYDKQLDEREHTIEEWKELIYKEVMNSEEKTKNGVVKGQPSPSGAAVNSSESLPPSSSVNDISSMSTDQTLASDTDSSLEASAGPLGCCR
Sequence of MAPKAPK2 (P49137 whole entry): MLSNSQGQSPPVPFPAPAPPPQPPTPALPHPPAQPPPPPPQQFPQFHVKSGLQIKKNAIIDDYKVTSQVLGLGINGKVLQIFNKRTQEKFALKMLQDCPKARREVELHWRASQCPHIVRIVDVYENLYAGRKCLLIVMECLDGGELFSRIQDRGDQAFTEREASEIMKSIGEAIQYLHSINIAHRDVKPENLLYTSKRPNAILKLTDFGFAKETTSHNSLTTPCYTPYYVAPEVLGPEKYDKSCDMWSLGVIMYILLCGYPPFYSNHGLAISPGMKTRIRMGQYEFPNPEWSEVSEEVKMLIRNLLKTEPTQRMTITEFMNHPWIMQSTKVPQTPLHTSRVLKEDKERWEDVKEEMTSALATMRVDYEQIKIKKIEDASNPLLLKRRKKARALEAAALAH
Sequence of TGFBR2 (P37173 whole entry): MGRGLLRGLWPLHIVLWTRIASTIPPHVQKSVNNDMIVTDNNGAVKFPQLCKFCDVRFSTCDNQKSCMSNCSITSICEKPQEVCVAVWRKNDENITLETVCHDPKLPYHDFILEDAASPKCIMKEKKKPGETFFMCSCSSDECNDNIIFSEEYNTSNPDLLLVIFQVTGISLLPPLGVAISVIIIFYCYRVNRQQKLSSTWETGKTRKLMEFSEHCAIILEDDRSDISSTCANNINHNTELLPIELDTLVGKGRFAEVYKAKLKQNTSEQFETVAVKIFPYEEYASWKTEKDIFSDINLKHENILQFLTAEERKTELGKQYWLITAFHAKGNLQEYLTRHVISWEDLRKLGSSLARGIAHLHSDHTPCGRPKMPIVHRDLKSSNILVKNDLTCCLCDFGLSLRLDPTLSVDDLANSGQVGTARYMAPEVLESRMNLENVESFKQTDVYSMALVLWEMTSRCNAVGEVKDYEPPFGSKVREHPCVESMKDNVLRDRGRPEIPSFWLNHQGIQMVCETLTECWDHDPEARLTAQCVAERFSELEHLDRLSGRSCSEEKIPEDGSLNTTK
T8 sequence (P51812 whole entry): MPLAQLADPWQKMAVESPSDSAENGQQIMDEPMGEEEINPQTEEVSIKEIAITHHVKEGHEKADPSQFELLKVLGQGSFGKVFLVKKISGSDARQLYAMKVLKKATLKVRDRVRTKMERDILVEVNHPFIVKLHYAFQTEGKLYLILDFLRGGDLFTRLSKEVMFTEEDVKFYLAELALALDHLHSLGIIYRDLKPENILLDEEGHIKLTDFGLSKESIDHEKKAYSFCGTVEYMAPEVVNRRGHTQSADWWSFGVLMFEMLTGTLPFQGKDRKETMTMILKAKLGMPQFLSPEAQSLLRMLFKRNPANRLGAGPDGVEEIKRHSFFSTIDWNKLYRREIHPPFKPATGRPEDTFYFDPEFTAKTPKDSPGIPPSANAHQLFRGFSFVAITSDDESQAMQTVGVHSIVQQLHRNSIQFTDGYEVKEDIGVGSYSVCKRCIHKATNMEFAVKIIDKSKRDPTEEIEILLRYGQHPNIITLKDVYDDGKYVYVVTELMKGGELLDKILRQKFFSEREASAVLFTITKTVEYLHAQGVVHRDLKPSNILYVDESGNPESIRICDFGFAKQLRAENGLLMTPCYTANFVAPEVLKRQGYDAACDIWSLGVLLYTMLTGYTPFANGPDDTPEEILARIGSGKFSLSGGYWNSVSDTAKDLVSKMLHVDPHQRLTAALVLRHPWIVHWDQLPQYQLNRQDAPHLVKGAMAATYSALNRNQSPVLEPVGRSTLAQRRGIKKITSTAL
T7 sequence (P36507 whole entry): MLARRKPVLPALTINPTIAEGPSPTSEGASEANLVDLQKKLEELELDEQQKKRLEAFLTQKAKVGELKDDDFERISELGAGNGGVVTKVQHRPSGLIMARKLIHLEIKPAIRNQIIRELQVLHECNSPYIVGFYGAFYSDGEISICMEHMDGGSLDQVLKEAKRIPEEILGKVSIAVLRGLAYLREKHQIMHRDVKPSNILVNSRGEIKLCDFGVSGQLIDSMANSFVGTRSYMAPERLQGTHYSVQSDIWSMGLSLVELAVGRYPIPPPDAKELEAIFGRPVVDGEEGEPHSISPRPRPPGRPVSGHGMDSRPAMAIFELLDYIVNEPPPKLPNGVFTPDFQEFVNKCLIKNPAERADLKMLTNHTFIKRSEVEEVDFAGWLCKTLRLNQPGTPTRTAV
T5 sequence (Q8N568 whole entry): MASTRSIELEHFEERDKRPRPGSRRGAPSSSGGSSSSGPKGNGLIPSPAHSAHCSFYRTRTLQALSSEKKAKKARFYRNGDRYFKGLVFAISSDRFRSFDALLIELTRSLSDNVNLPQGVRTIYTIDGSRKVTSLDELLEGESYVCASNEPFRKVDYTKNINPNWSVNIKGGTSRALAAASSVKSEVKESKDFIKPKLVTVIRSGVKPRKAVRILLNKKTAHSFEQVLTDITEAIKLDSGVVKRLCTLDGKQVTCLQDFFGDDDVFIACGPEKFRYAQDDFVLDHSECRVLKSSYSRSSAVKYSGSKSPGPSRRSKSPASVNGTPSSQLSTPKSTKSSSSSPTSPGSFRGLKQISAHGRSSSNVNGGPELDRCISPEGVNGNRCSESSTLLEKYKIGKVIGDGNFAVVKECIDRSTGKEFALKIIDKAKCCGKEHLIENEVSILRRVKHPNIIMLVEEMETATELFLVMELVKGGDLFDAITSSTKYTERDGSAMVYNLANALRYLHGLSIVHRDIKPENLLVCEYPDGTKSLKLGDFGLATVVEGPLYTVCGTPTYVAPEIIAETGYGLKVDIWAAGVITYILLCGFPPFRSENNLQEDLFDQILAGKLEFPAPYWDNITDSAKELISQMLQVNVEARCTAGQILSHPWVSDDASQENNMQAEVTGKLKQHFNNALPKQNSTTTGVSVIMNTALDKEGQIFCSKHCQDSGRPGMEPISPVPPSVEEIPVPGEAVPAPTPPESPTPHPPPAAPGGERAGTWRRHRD
Sequence of PAK6 (Q9NQU5 whole entry): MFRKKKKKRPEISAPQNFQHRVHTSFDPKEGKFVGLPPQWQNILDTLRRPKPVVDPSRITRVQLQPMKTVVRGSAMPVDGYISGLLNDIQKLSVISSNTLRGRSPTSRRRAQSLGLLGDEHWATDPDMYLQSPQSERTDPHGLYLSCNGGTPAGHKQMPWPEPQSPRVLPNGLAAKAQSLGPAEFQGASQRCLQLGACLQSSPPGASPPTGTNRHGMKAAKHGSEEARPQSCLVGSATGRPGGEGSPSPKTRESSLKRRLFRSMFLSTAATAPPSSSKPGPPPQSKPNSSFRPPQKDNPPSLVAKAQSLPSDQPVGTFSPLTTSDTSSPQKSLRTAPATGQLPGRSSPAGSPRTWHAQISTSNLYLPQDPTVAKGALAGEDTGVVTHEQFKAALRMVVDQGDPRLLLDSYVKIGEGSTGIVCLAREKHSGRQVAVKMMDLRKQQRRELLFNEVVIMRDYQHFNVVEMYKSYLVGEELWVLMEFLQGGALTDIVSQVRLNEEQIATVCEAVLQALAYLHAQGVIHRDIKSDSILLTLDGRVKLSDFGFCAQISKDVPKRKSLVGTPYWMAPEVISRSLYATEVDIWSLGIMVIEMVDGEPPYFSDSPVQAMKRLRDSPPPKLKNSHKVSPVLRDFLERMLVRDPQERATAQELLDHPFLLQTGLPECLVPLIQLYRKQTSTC

As to `c1ccc2c(c1)Sc1ccccc1N2CCN1CCOCC1` [J54], the remaining binding in test [1] turned out to be 92%; in [2], 100%; in [3] it was 94%; on BIKE it was 52%; at CSNK1E, 100%; on CSNK1G3, 100%. In addition, the remaining binding was determined as 100% at DCAMKL2; 93% on JNK3; 81% at LATS1; 100% on MAPKAPK2; 100% at MEK2; 76% at PAK2. The remaining binding on PAK6 stood at 100%; on PIK3CA(E545K) it was 100%; on PKNB(M.tuberculosis), 87%; in test [4], 89%; at TGFBR2, 99%; at YANK2, 100%.

For the origin of these results see PMC7486443, “Generation of Phenothiazine with Potent Anti-TLK1 Activity for Prostate Cancer Therapy” (iScience, 2020).
